Patent US6777422B2, “Substituted tetrahydroisoquinolines as C5a receptor modulators” (Neurogen Corp., priority 2002, dated 2004)

molecular target: T1, human C5a receptor (Homo sapiens, UniProt P21730); test: C5a receptor mediated calcium mobilization assay (Example 20); format: cell-based; settings: differentiated U937 cells, read-out: Ca2+ (Ki in the standard assay of C5a receptor mediated calcium mobilization)
T1 construct: endogenous in cells; host or cells: U937 cells differentiated with 1 mM dibutyryl cAMP
T1 sequence (P21730 1-350): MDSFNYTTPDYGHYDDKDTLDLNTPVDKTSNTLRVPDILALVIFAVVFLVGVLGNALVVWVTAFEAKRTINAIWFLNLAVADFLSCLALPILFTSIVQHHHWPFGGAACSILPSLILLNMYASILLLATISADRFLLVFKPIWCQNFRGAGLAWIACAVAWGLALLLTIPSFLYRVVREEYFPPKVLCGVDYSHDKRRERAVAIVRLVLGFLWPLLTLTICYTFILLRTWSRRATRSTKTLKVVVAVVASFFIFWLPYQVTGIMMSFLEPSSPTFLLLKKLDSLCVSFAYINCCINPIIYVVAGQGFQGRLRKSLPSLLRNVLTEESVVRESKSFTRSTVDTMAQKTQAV
Outline: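 Differentiated U937 cells (dibutyryl cAMP, 48 h) loaded with Fluo-3 were pre-incubated 1 h with compound at 1 μM, then challenged with 0.3 nM (final) human recombinant C5a. Calcium response monitored by FLIPR fluorescence (Ex 480/Em 530 nm); antagonism defined as ≥2-fold decrease versus C5a alone.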

SMILES | Ki [nM]
C[C@@H](C(=O)N(CCc1ccccc1F)Cc1ccc(O)cc1)N1CCc2ccccc2[C@@H]1c1ccccc1Cl [Compound 104, (2S)-2-[(1R)-1-(2-chlorophenyl)-3,4-dihydroisoquinolin-2(1H)-yl]-N-[2-(2-fluorophenyl)ethyl]-N-(4-hydroxybenzyl)propanamide] | < 1000
C[C@@H](C(=O)N(Cc1cccc(C(=O)N(C)C)c1)C1Cc2ccccc2C1)N1CCc2ccccc2[C@@H]1c1ccccc1Cl [Compound 105, 3-{[{(2S)-2-[(1R)-1-(2-chlorophenyl)-3,4-dihydroisoquinolin-2(1H)-yl]propanoyl}(indan-2-yl)amino]methyl}-N,N-dimethylbenzamide] | < 1000
Cc1cc(CN(C(=O)[C@H](C)N2CCc3ccccc3[C@@H]2c2ccccc2Cl)C2Cc3ccccc3C2)cc(C)c1O [Compound 106, (2S)-2-[(1R)-1-(2-chlorophenyl)-3,4-dihydroisoquinolin-2(1H)-yl]-N-(indan-2-yl)-N-(4-hydroxy-3,5-dimethylbenzyl)propanamide] | < 1000
C[C@@H](C(=O)N(CCc1ccccc1)CCc1ccccc1F)N1CCc2ccccc2[C@@H]1c1ccccc1Cl [Compound 108, (2S)-2-[(1R)-1-(2-chlorophenyl)-3,4-dihydroisoquinolin-2(1H)-yl]-N-[2-(2-fluorophenyl)ethyl]-N-(2-phenylethyl)propanamide] | < 1000
C[C@@H](C(=O)N(CCc1ccccc1F)Cc1ccccc1F)N1CCc2ccccc2[C@@H]1c1ccccc1Cl [Compound 109, (2S)-2-[(1R)-1-(2-chlorophenyl)-3,4-dihydroisoquinolin-2(1H)-yl]-N-(2-fluorobenzyl)-N-[2-(2-fluorophenyl)ethyl] propanamide] | < 1000
Cc1cc(CN(C(=O)[C@H](C)N2CCc3ccccc3[C@@H]2c2c(Cl)cccc2Cl)C2Cc3ccccc3C2)cc(C)c1O [Compound 110, (2S)-2-[(1R)-1-(2,6-dichlorophenyl)-3,4-dihydroisoquinolin-2(1H)-yl]-N-(indan-2-yl)-N-(4-hydroxy-3,5-dimethylbenzyl) propanamide] | < 1000
C[C@@H](C(=O)N(Cc1cccc(C#N)c1)C1Cc2ccccc2C1)N1CCc2ccccc2[C@@H]1c1ccccc1Cl [Compound 111, (2S)-2-[(1R)-1-(2-chlorophenyl)-3,4-dihydroisoquinolin-2(1H)-yl]-N-(3-cyanobenzyl)-N-(indan-2-yl)propanamide] | < 1000
C[C@@H](C(=O)N(Cc1cccc([N+](=O)[O-])c1)C1Cc2ccccc2C1)N1CCc2ccccc2[C@@H]1c1ccccc1Cl [Compound 112, (2S)-2-[(1R)-1-(2-chlorophenyl)-3,4-dihydroisoquinolin-2(1H)-yl]-N-(indan-2-yl)-N-(3-nitrobenzyl)propanamide] | < 1000
Cc1ccccc1[C@H]1c2ccccc2CCN1CC(=O)N(Cc1cccc(O)c1)C1Cc2ccccc2C1 [Compound 113, N-(indan-2-yl)-N-(3-hydroxybenzyl)-2-[(1S)-1-(2-methylphenyl)-3,4-dihydroisoquinolin-2(1H)-yl]acetamide] | < 1000
C[C@@H](C(=O)N(Cc1cccc(O)c1)C1Cc2ccccc2C1)N1CCc2ccccc2[C@@H]1c1ccccc1Cl [Compound 114, (2S)-2-[(1R)-1-(2-chlorophenyl)-3,4-dihydroisoquinolin-2(1H)-yl]-N-(indan-2-yl)-N-(3-hydroxybenzyl)propanamide] | < 1000
C[C@@H](C(=O)N(Cc1cccc(O)c1F)C1Cc2ccccc2C1)N1CCc2ccccc2[C@@H]1c1ccccc1Cl [Compound 115, (2S)-2-[(1R)-1-(2-chlorophenyl)-3,4-dihydroisoquinolin-2(1H)-yl]-N-(indan-2-yl)-N-(2-fluoro-3-hydroxybenzyl)propanamide] | < 1000
Cc1ccccc1C1c2c(Cl)cccc2CCN1CC(=O)N(Cc1ccccc1F)C1Cc2ccccc2C1 (centres unmarked) [Compound 116, 2-[8-chloro-1-(2-methylphenyl)-3,4-dihydroisoquinolin-2(1H)-yl]-N-(indan-2-yl)-N(2-fluorobenzyl)acetamide] | < 1000
O=C(CN1CCc2cccc(Cl)c2C1c1c(F)cccc1Cl)N(Cc1ccccc1F)C1Cc2ccccc2C1 (centres unmarked) [Compound 117, 2-[8-chloro-1-(2-chloro-6-fluorophenyl)-3,4-dihydroisoquinolin-2(1H)-yl]-N-(indan-2-yl)-N-(2-fluorobenzyl)acetamide] | < 1000
C[C@@H](C(=O)N(CCc1ccc(O)cc1)Cc1ccccc1F)N1CCc2ccccc2[C@@H]1c1cccc2ccccc12 [Compound 118, (2S)-N-(2-fluorobenzyl)-N-[2-(4-hydroxyphenyl)ethyl]-2-[(1R)-1-(1-naphthyl)-3,4-dihydroisoquinolin-2(1H)-yl]propanamide] | < 1000
C[C@@H](C(=O)N(CCc1c[nH]c2ccccc12)Cc1ccccc1F)N1CCc2ccccc2[C@@H]1c1cccc2ccccc12 [Compound 119, (2S)-N-(2-fluorobenzyl)-N-[2-(1H-indol-3-yl)ethyl]-2-[(1R)-1-(1-naphthyl)-3,4-dihydroisoquinolin-2(1H)-yl]propanamide] | < 1000
C[C@@H](C(=O)N(Cc1cccc(OC(F)F)c1F)C1Cc2ccccc2C1)N1CCc2ccccc2[C@@H]1c1ccccc1Cl [Compound 120, (2S)-2-[(1R)-1-(2-chlorophenyl)-3,4-dihydroisoquinolin-2(1H)-yl]-N-[3-(difluoromethoxy)-2-fluorobenzyl]-N-(indan-2-yl)propanamide] | < 1000
COc1ncccc1CN(C(=O)[C@H](C)N1CCc2ccccc2[C@@H]1c1cccc2ccccc12)C1Cc2ccccc2C1 [Compound 121, (2S)-N-(indan-2-yl)-N-[(2-methoxypyridin-3-yl)methyl]-2-[(1R)-1-(1-naphthyl)-3,4-dihydroisoquinolin-2(1H)-yl]propanamide] | < 1000
COc1ncccc1CN(Cc1ccccc1F)C(=O)[C@H](C)N1CCc2ccccc2[C@@H]1c1cccc2ccccc12 [Compound 122, (2S)-N-(2-fluorobenzyl)-N-[(2-methoxypyridin-3-yl)methyl]-2-[(1R)-1-(1-naphthyl)-3,4-dihydroisoquinolin-2(1H)-yl]propanamide] | < 1000
O=C(CN1CCc2ccccc2C1c1ccc(O)cc1)N(Cc1ccccc1F)C1Cc2ccccc2C1 (centres unmarked) [Compound 123, N-(indan-2-yl)-N-(2-fluorobenzyl)-2-[1-(4-hydroxyphenyl)-3,4-dihydroisoquinolin-2(1H)-yl]acetamide] | < 1000
COc1cccc(CN(C(=O)[C@H](C)N2CCc3ccccc3[C@@H]2c2cccc3ccccc23)C2Cc3ccccc3C2)n1 [Compound 124, (2S)-N-(indan-2-yl)-N-[(6-methoxypyridin-2-yl)methyl]-2-[(1R)-1-(1-naphthyl)-3,4-dihydroisoquinolin-2(1H)-yl]propanamide] | < 1000
COc1cccc(CN(Cc2ccccc2F)C(=O)[C@H](C)N2CCc3ccccc3[C@@H]2c2cccc3ccccc23)n1 [Compound 125, (2S)-N-(2-fluorobenzyl)-N-[(6-methoxypyridin-2-yl)methyl]-2-[(1R)-1-(1-naphthyl)-3,4-dihydroisoquinolin-2(1H)-yl]propanamide] | < 1000
C[C@@H](C(=O)N(Cc1ncccc1F)C1Cc2ccccc2C1)N1CCc2ccccc2[C@@H]1c1cccc2ccccc12 [Compound 126, (2S)-N-(indan-2-yl)-N-[(3-fluoropyridin-2-yl)methyl]-2-[(1R)-1-(1-naphthyl)-3,4-dihydroisoquinolin-2(1H)-yl]propanamide] | < 1000
COc1cncc(CN(C(=O)[C@H](C)N2CCc3ccccc3[C@@H]2c2cccc3ccccc23)C2Cc3ccccc3C2)c1 [Compound 127, (2S)-N-(indan-2-yl)-N-[(5-methoxypyridin-3-yl)methyl]-2-[(1R)-1-(1-naphthyl)-3,4-dihydroisoquinolin-2(1H)-yl]propanamide] | < 1000

same assay, conditions: differentiated U937 cells, unit inferred, read-out: Ca2+ (numeric value, C5a receptor mediated calcium mobilization)

SMILES | Ki [nM]
Cc1ccccc1C1C(C)CCCN1CC(=O)N(Cc1ccccc1F)C1Cc2ccccc2C1 (centres unmarked) [Compound 128, N-(2-Fluoro-benzyl)-N-indan-2-yl-2-(3-methyl-2-o-tolyl-piperidin-1-yl)-acetamide] | 547
Cc1ccccc1C1CCCCN1CC(=O)N(Cc1ccccc1F)C1Cc2ccccc2C1 (centres unmarked) [Compound 129, N-(2-Fluoro-benzyl)-N-indan-2-yl-2-(2-o-tolyl-piperidin-1-yl)-acetamide] | 131
COc1ccccc1C1CCCCN1CC(=O)N(Cc1ccccc1F)C1Cc2ccccc2C1 (centres unmarked) [Compound 130, N-(2-Fluoro-benzyl)-N-indan-2-yl-2-[2-(2-methoxy-phenyl)-piperidin-1-yl]-acetamide] | 405
CN(CC(=O)N(Cc1ccccc1F)C1Cc2ccccc2C1)C(c1ccccc1)c1ccccc1 [Compound 133, 2-(Benzhydryl-methyl-amino)-N-(2-fluoro-benzyl)-N-indan-2-yl-acetamide] | 465
CC1=C(C)C(c2ccccc2)N(CC(=O)N(Cc2ccccc2F)C2Cc3ccccc3C2)CC1 (centres unmarked) [Compound 134, 2-(4,5-Dimethyl-6-phenyl-3,6-dihydro-2H-pyridin-1-yl)-N-(2-fluoro-benzyl)-N-indan-2-yl-acetamide] | 575
CC1=C(C)C(c2ccccc2C)N(CC(=O)N(Cc2ccccc2F)C2Cc3ccccc3C2)CC1 (centres unmarked) [Compound 135, 2-(4,5-Dimethyl-6-o-tolyl-3,6-dihydro-2H-pyridin-1-yl)-N-(2-fluoro-benzyl)-N-indan-2-yl-acetamide] | 193
